# Laboratory results as given in patent US4664850A, “Novel radioactive steroids” (Roussel Uclaf, priority 1983, dated 1987).
# Experiments:
# glucocorticoid receptors [1] = settings: versus other steroid receptors, particularly mineralocorticoid; TEUTSCH et al. 1981; cited from earlier work
# [2] = target: T1, glucocorticoid receptors of cytosol of rat thymus (Rattus norvegicus, UniProt P06536); assay: Fixation on glucocorticoid receptors of rat thymus cytosol (carbon-dextran adsorption); format: binding
# T1 construct: carbon-dextran adsorption
# T1 sequence (P06536 1-795): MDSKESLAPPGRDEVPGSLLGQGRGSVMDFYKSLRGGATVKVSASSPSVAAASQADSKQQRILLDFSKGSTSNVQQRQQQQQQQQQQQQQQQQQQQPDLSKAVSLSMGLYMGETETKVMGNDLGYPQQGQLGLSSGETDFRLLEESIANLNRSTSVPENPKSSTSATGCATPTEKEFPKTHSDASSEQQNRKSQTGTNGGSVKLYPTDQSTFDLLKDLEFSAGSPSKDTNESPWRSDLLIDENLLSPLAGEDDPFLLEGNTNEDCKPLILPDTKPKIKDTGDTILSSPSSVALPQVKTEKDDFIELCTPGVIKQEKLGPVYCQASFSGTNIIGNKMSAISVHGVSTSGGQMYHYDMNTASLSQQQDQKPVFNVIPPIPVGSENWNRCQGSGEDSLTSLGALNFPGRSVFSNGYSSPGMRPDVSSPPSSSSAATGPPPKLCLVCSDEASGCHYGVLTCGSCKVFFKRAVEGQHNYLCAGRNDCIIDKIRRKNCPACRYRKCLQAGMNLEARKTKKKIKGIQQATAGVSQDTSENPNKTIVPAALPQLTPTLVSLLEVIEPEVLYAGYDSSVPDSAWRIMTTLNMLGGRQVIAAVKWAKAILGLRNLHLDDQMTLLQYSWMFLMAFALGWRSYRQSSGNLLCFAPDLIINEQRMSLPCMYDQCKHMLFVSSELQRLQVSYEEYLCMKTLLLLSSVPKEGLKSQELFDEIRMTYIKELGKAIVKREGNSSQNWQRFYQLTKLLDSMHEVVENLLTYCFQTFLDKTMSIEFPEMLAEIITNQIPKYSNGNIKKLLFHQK
# Experimental: (§1) (d) At 0° C. and 15° C., product A forms complexes with thymus glucocorticoid receptors which are stable for at least 24 hours. […] For this reason, it permits the total number of glucocorticoid fixation sites to be determined in different physiological conditions.
# [3] = test system: glucocorticoid receptors of the hippocampus; assay: Dissociation from glucocorticoid receptors of hippocampus cytosol; format: binding
# plasmatic proteins = assay: Specific fixation on plasmatic proteins; format: binding; settings: animals or humans
# [4] = Stability and metabolism under in vitro incubation conditions; format: in vitro ADME; settings: for metabolism in vitro in certain tissues: working in vitro, incubation conditions
# Experimental: as §1
# glucocorticoid receptors [5] = assay: Selectivity of fixation on steroid receptors; format: binding; settings: compared with similar non-radioactive products
# Source text: 651-665 (1981)]. Otherwise, other natural or synthetic corticoids which are used for this type of experiment, simultaneously fix on other steroid receptors and particularly on mineralocorticoid receptors. However, during such experiments with non-radioactive 6-methyl-17α-(prop-1-ynyl)-Δ^1,4,6 -androstatriene-11β,17β-diol-3-one, particularly when the tissues […] examined included simultaneously glucocorticoid and mineralocorticoid receptors, it was often necessary to adopt a succession of long and complicated methods.
# Because of the radioactivity of the products of formula I, it is much easier to reveal the existence of the glucocorticoid receptors in the tissues of organs when mineralocorticoid receptors are also present, thanks to the use of the usual methods of liaison measurements taking advantage of radioactive products. In addition, what was not possible with a non-radioactive product, such, for example, as determining of the number of sites of fixation of the glucocorticoid receptors, becomes realizable by the use of the products of formula I.
# [6] = 0° C. and 15° C., 24 hours, thymus receptor incubation
compound,measurement,setting,value
"CC#CC1(O)CCC2C3C=C(C)C4=CC(=O)C=CC4(C)C3C(O)CC21C (stereo not drawn) [6-methyl-17α-(prop-1-ynyl)-Δ^1,4,6-androstatriene-11β,17β-diol-3-one]",selectivity of fixation on glucocorticoid receptors,glucocorticoid receptors [1],fixes selectively on the glucocorticoid receptors
"[3H]C([3H])([3H])C1=CC2C(C(O)CC3(C)C2CCC3(O)C#CC)C2(C)C=CC(=O)C=C12 (stereo not drawn) [Product A, 6-methyl-^3 H3-17α-(prop-1-ynyl)-Δ^1,4,6-androstatriene-11β,17β-diol-3-one]",non-specific fixation,"[2]; 0° C. and 15° C., 24 hours",only shows a weak non-specific fixation
same,constant of association (Ka),"[2]; 0° C., rat thymus cytosol, adsorption by carbon-dextran",~10^9 M^-1
same,constant of association relative to dexamethazone,"[2]; 0° C., rat thymus cytosol, compared with dexamethazone",about twice as high as that of dexamethazone
same,stability of complexes with thymus glucocorticoid receptors,[2]; at 0° C. and 15° C.,at least 24 hours
same,replacement of non-radioactive corticosterone and cortisol fixed on glucocorticoid receptors,[2]; incubation at 15° C. for 24 hours,totally replaces
same,shape of dissociation curve,[2]; thymus,a curve with one slope
same,speed of association (K+1),[2]; towards the glucocorticoid receptors,~10^6 M^-1 mn^-1
same,shape of dissociation curve,[3],a curve with one slope
same,specific fixation on plasmatic proteins,plasmatic proteins,does not give rise to any specific fixation
same,loss of tritium,[4]; [6],does not show any loss of tritium
same,metabolism under incubation conditions,[4]; [6],is not subject to metabolism
same,selective reactivity in respect of the glucocorticoid receptors,glucocorticoid receptors [5],the same selective reactivity
"C[C@]12C[C@H](O)[C@H]3[C@@H](CCC4=CC(=O)CC[C@@]43C)[C@@H]1CC[C@@H]2C(=O)CO [corticosterone, reference compound]",metabolism in vitro in certain tissues,[4],are metabolized in certain tissues
"C[C@]12CCC(=O)C=C1CC[C@@H]1[C@@H]2[C@@H](O)C[C@@]2(C)[C@H]1CC[C@]2(O)C(=O)CO [cortisol, reference compound]",metabolism in vitro in certain tissues,[4],are metabolized in certain tissues
^3 H-corticosterone [reference compound],shape of dissociation curve,[3],a dissociation curve with two slopes
